In patent publication US20110071108A1, “Beta-Cyclodextrin Derivatives as Antibacterial Agents” (Pinnacle Pharmaceuticals, Inc., priority 2005, published 2011):

Experiments:
Assay in all cases: Bacterial panel testing, MIC by broth microdilution
Format in all cases: cell-based
Conditions in all cases: 20-24 hours growth
Bacillus atrophaeus = system: Bacillus atrophaeus
Outline: (§1)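 Twofold broth microdilution: compound, prepared at 10 μg/ml in DMSO, serially diluted left to right in inoculated Mueller-Hinton or Brain Heart infusion media. Inoculum from 2-4 h cultures at 37° C, standardized to McFarland density. Plates sealed and grown 20-24 h, then clear wells scored.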

Enterococcus faecium = system: Enterococcus faecium
Outline: as §1

Eschericia coli = system: Eschericia coli
Outline: as §1

Pseudomonas aeruginosa = system: Pseudomonas aeruginosa
Outline: as §1

Salmonella choleraesuis = system: Salmonella choleraesuis
Outline: as §1

Staphylococcus aureus = system: Staphylococcus aureus
Outline: as §1

O=C(O)COC[C@H]1O[C@@H]2O[C@H]3[C@H](O)[C@@H](O)[C@@H](O[C@H]4[C@H](O)[C@@H](O)[C@@H](O[C@H]5[C@H](O)[C@@H](O)[C@@H](O[C@H]6[C@H](O)[C@@H](O)[C@@H](O[C@H]7[C@H](O)[C@@H](O)[C@@H](O[C@H]8[C@H](O)[C@@H](O)[C@@H](O[C@H]1[C@H](O)[C@H]2O)O[C@@H]8COCC(=O)O)O[C@@H]7COCC(=O)O)O[C@@H]6COCC(=O)O)O[C@@H]5COCC(=O)O)O[C@@H]4COCC(=O)O)O[C@@H]3COCC(=O)O
>200 µg/mL: MIC BA (Bacillus atrophaeus) | MIC EF (Enterococcus faecium) | MIC EC (Eschericia coli) | MIC PA (Pseudomonas aeruginosa) | MIC SC (Salmonella choleraesuis) | MIC SA (Staphylococcus aureus)

CC(C)[C@H](N)C(=O)NC[C@H]1O[C@@H]2O[C@H]3[C@H](O)[C@@H](O)[C@@H](O[C@H]4[C@H](O)[C@@H](O)[C@@H](O[C@H]5[C@H](O)[C@@H](O)[C@@H](O[C@H]6[C@H](O)[C@@H](O)[C@@H](O[C@H]7[C@H](O)[C@@H](O)[C@@H](O[C@H]8[C@H](O)[C@@H](O)[C@@H](O[C@H]1[C@H](O)[C@H]2O)O[C@@H]8CNC(=O)[C@@H](N)C(C)C)O[C@@H]7CNC(=O)[C@@H](N)C(C)C)O[C@@H]6CNC(=O)[C@@H](N)C(C)C)O[C@@H]5CNC(=O)[C@@H](N)C(C)C)O[C@@H]4CNC(=O)[C@@H](N)C(C)C)O[C@@H]3CNC(=O)[C@@H](N)C(C)C.Cl.Cl.Cl.Cl.Cl.Cl.Cl
>200 µg/mL: MIC BA (Bacillus atrophaeus) | MIC EF (Enterococcus faecium) | MIC EC (Eschericia coli) | MIC PA (Pseudomonas aeruginosa) | MIC SC (Salmonella choleraesuis) | MIC SA (Staphylococcus aureus)

O[C@@H]1[C@@H](O)[C@H]2O[C@H]3[C@H](O)[C@@H](O)[C@@H](O[C@H]4[C@H](O)[C@@H](O)[C@@H](O[C@H]5[C@H](O)[C@@H](O)[C@@H](O[C@H]6[C@H](O)[C@@H](O)[C@@H](O[C@H]7[C@H](O)[C@@H](O)[C@@H](O[C@H]8[C@H](O)[C@@H](O)[C@@H](O[C@@H]1[C@@H](CN1CCOCC1)O2)O[C@@H]8CN1CCOCC1)O[C@@H]7CN1CCOCC1)O[C@@H]6CN1CCOCC1)O[C@@H]5CN1CCOCC1)O[C@@H]4CN1CCOCC1)O[C@@H]3CN1CCOCC1
>200 µg/mL: MIC BA (Bacillus atrophaeus) | MIC EF (Enterococcus faecium) | MIC EC (Eschericia coli) | MIC PA (Pseudomonas aeruginosa) | MIC SC (Salmonella choleraesuis) | MIC SA (Staphylococcus aureus)

OC1C2OC(Cn3cc(Cc4ccccc4)nn3)C(OC3OC(Cn4cc(Cc5ccccc5)nn4)C(OC4OC(Cn5cc(Cc6ccccc6)nn5)C(OC5OC(Cn6cc(Cc7ccccc7)nn6)C(OC6OC(Cn7cc(Cc8ccccc8)nn7)C(OC7OC(Cn8cc(Cc9ccccc9)nn8)C(OC8OC(Cn9cc(Cc%10ccccc%10)nn9)C(O2)C(O)C8O)C(O)C7O)C(O)C6O)C(O)C5O)C(O)C4O)C(O)C3O)C1O (stereo not drawn)
>200 µg/mL: MIC BA (Bacillus atrophaeus) | MIC EF (Enterococcus faecium) | MIC EC (Eschericia coli) | MIC PA (Pseudomonas aeruginosa) | MIC SC (Salmonella choleraesuis) | MIC SA (Staphylococcus aureus)

CN(C)CCNC[C@H]1O[C@@H]2O[C@H]3[C@H](O)[C@@H](O)[C@@H](O[C@H]4[C@H](O)[C@@H](O)[C@@H](O[C@H]5[C@H](O)[C@@H](O)[C@@H](O[C@H]6[C@H](O)[C@@H](O)[C@@H](O[C@H]7[C@H](O)[C@@H](O)[C@@H](O[C@H]8[C@H](O)[C@@H](O)[C@@H](O[C@H]1[C@H](O)[C@H]2O)O[C@@H]8CNCCN(C)C)O[C@@H]7CNCCN(C)C)O[C@@H]6CNCCN(C)C)O[C@@H]5CNCCN(C)C)O[C@@H]4CNCCN(C)C)O[C@@H]3CNCCN(C)C
>200 µg/mL: MIC BA (Bacillus atrophaeus) | MIC EF (Enterococcus faecium) | MIC EC (Eschericia coli) | MIC PA (Pseudomonas aeruginosa) | MIC SC (Salmonella choleraesuis) | MIC SA (Staphylococcus aureus)

Cl.Cl.Cl.Cl.Cl.Cl.NCCCSCC1OC2OC3C(CSCCCN)OC(OC4C(CSCCCN)OC(OC5C(CSCCCN)OC(OC6C(CSCCCN)OC(OC7C(CSCCCN)OC(OC1C(O)C2O)C(O)C7O)C(O)C6O)C(O)C5O)C(O)C4O)C(O)C3O (stereo not drawn)
>200 µg/mL: MIC BA (Bacillus atrophaeus) | MIC EF (Enterococcus faecium) | MIC EC (Eschericia coli) | MIC PA (Pseudomonas aeruginosa) | MIC SC (Salmonella choleraesuis) | MIC SA (Staphylococcus aureus)

CCCCCCCCCCCC[N+]12CC[N+](CC(=O)NCC3OC4OC5C(CNC(=O)C[N+]67CC[N+](CCCCCCCCCCCC)(CC6)CC7)OC(OC6C(CNC(=O)C[N+]78CC[N+](CCCCCCCCCCCC)(CC7)CC8)OC(OC7C(CNC(=O)C[N+]89CC[N+](CCCCCCCCCCCC)(CC8)CC9)OC(OC8C(CNC(=O)C[N+]9%10CC[N+](CCCCCCCCCCCC)(CC9)CC%10)OC(OC9C(CNC(=O)C[N+]%10%11CC[N+](CCCCCCCCCCCC)(CC%10)CC%11)OC(OC%10C(CNC(=O)C[N+]%11%12CC[N+](CCCCCCCCCCCC)(CC%11)CC%12)OC(OC3C(O)C4O)C(O)C%10O)C(O)C9O)C(O)C8O)C(O)C7O)C(O)C6O)C(O)C5O)(CC1)CC2 (stereo not drawn)
>200 µg/mL: MIC BA (Bacillus atrophaeus) | MIC EF (Enterococcus faecium) | MIC EC (Eschericia coli) | MIC PA (Pseudomonas aeruginosa) | MIC SC (Salmonella choleraesuis) | MIC SA (Staphylococcus aureus)

Cl.Cl.Cl.Cl.Cl.Cl.Cl.NC(CCC(=O)O)C(=O)NCC1OC2OC3C(CNC(=O)C(N)CCC(=O)O)OC(OC4C(CNC(=O)C(N)CCC(=O)O)OC(OC5C(CNC(=O)C(N)CCC(=O)O)OC(OC6C(CNC(=O)C(N)CCC(=O)O)OC(OC7C(CNC(=O)C(N)CCC(=O)O)OC(OC8C(CNC(=O)C(N)CCC(=O)O)OC(OC1C(O)C2O)C(O)C8O)C(O)C7O)C(O)C6O)C(O)C5O)C(O)C4O)C(O)C3O (stereo not drawn)
>200 µg/mL: MIC BA (Bacillus atrophaeus) | MIC EF (Enterococcus faecium) | MIC EC (Eschericia coli) | MIC PA (Pseudomonas aeruginosa) | MIC SC (Salmonella choleraesuis) | MIC SA (Staphylococcus aureus)

Cl.Cl.Cl.Cl.Cl.Cl.Cl.Cl.Cl.Cl.Cl.Cl.Cl.Cl.NC(Cc1cnc[nH]1)C(=O)NCC1OC2OC3C(CNC(=O)C(N)Cc4cnc[nH]4)OC(OC4C(CNC(=O)C(N)Cc5cnc[nH]5)OC(OC5C(CNC(=O)C(N)Cc6cnc[nH]6)OC(OC6C(CNC(=O)C(N)Cc7cnc[nH]7)OC(OC7C(CNC(=O)C(N)Cc8cnc[nH]8)OC(OC8C(CNC(=O)C(N)Cc9cnc[nH]9)OC(OC1C(O)C2O)C(O)C8O)C(O)C7O)C(O)C6O)C(O)C5O)C(O)C4O)C(O)C3O (stereo not drawn)
>200 µg/mL: MIC BA (Bacillus atrophaeus) | MIC EF (Enterococcus faecium) | MIC EC (Eschericia coli) | MIC PA (Pseudomonas aeruginosa) | MIC SC (Salmonella choleraesuis) | MIC SA (Staphylococcus aureus)

Cl.Cl.Cl.Cl.Cl.Cl.Cl.Cl.Cl.Cl.Cl.Cl.Cl.Cl.Cl.Cl.Cl.Cl.Cl.Cl.Cl.NCCCCC(N)C(=O)NC(CCCCN)C(=O)NCC1OC2OC3C(CNC(=O)C(CCCCN)NC(=O)C(N)CCCCN)OC(OC4C(CNC(=O)C(CCCCN)NC(=O)C(N)CCCCN)OC(OC5C(CNC(=O)C(CCCCN)NC(=O)C(N)CCCCN)OC(OC6C(CNC(=O)C(CCCCN)NC(=O)C(N)CCCCN)OC(OC7C(CNC(=O)C(CCCCN)NC(=O)C(N)CCCCN)OC(OC8C(CNC(=O)C(CCCCN)NC(=O)C(N)CCCCN)OC(OC1C(O)C2O)C(O)C8O)C(O)C7O)C(O)C6O)C(O)C5O)C(O)C4O)C(O)C3O (stereo not drawn)
>200 µg/mL: MIC BA (Bacillus atrophaeus) | MIC EF (Enterococcus faecium) | MIC EC (Eschericia coli) | MIC PA (Pseudomonas aeruginosa) | MIC SC (Salmonella choleraesuis) | MIC SA (Staphylococcus aureus)

O[C@@H]1[C@@H](O)[C@H]2O[C@H]3[C@H](O)[C@@H](O)[C@@H](O[C@H]4[C@H](O)[C@@H](O)[C@@H](O[C@H]5[C@H](O)[C@@H](O)[C@@H](O[C@H]6[C@H](O)[C@@H](O)[C@@H](O[C@H]7[C@H](O)[C@@H](O)[C@@H](O[C@H]8[C@H](O)[C@@H](O)[C@@H](O[C@@H]1[C@@H](Cn1ccnc1)O2)O[C@@H]8Cn1ccnc1)O[C@@H]7Cn1ccnc1)O[C@@H]6Cn1ccnc1)O[C@@H]5Cn1ccnc1)O[C@@H]4Cn1ccnc1)O[C@@H]3Cn1ccnc1
>200 µg/mL: MIC BA (Bacillus atrophaeus) | MIC EF (Enterococcus faecium) | MIC EC (Eschericia coli) | MIC PA (Pseudomonas aeruginosa) | MIC SC (Salmonella choleraesuis) | MIC SA (Staphylococcus aureus)

Cl.Cl.Cl.Cl.Cl.Cl.Cl.N[C@@H](Cc1ccc(OCc2ccccc2)cc1)C(=O)NC[C@H]1O[C@@H]2O[C@H]3[C@H](O)[C@@H](O)[C@@H](O[C@H]4[C@H](O)[C@@H](O)[C@@H](O[C@H]5[C@H](O)[C@@H](O)[C@@H](O[C@H]6[C@H](O)[C@@H](O)[C@@H](O[C@H]7[C@H](O)[C@@H](O)[C@@H](O[C@H]8[C@H](O)[C@@H](O)[C@@H](O[C@H]1[C@H](O)[C@H]2O)O[C@@H]8CNC(=O)[C@@H](N)Cc1ccc(OCc2ccccc2)cc1)O[C@@H]7CNC(=O)[C@@H](N)Cc1ccc(OCc2ccccc2)cc1)O[C@@H]6CNC(=O)[C@@H](N)Cc1ccc(OCc2ccccc2)cc1)O[C@@H]5CNC(=O)[C@@H](N)Cc1ccc(OCc2ccccc2)cc1)O[C@@H]4CNC(=O)[C@@H](N)Cc1ccc(OCc2ccccc2)cc1)O[C@@H]3CNC(=O)[C@@H](N)Cc1ccc(OCc2ccccc2)cc1
>200 µg/mL: MIC BA (Bacillus atrophaeus) | MIC EF (Enterococcus faecium) | MIC EC (Eschericia coli) | MIC PA (Pseudomonas aeruginosa) | MIC SC (Salmonella choleraesuis) | MIC SA (Staphylococcus aureus)
